Literature values as cited in patent US9468209B2, “Method for eradicating weeds with derivatives of 3-acetyl-5-sec-butyl-4-hydroxy-3-pyrrolin-2-one” (priority 2012, dated 2016).

Experiments:
[1] = test system: monocotyledon weeds (such as common crabgrass and barnyardgrass) and dicotyledonous weeds including Crofton weeds; settings: concentration of 50 μg/mL; cited from earlier work
Hill reaction = settings: versus 3-(3,4-dichlorophenyl)-1,1-dimethylurea (DCMU); cited from earlier work
rat = settings: called moderate toxicity; cited from earlier work

CCC(C)C1NC(=O)C(C(C)=O)=C1O (stereo not drawn) [3-acetyl-5-sec-butyl-4-hydroxy-3-pyrrolin-2-one]
killing monocotyledon and dicotyledonous weeds [1]: very effective
inhibition to Hill reaction compared with DCMU (Hill reaction): much higher than the typical photosynthetic inhibitor
toxicity to rat (rat): 200 mg/kg
